Consider 27 compounds from patent US9765074B2, “Inhibitors of the renal outer medullary potassium channel” (Merck Sharp & Dohme Corp., priority 2013, dated 2017).

For this test, the target named is T1, hROMK (hKir1.1) (Homo sapiens, UniProt P48048).
T1 construct: expressed in transfected cells
T1 sequence (P48048 1-391): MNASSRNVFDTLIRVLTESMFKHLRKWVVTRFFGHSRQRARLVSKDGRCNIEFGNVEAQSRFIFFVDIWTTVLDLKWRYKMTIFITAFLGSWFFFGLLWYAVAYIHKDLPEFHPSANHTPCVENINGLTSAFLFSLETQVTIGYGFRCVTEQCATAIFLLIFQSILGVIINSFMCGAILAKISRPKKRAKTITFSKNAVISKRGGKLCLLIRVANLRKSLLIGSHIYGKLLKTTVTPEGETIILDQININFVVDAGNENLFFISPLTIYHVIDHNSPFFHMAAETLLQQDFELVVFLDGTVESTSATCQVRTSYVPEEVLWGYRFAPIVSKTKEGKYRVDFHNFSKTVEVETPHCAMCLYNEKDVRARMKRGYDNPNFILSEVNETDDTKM
As to the kind of experiment: Thallium Flux Assay (ROMK channel functional thallium flux, FLIPR-Tetra). Type of test: cell-based. Conditions: HEK293 cells stably expressing hROMK (hKir1.1); 30 min compound incubation. How it is done: The following Thallium Flux Assay was performed on each of the final product compounds in the Examples.
Cell Culture Conditions—HEK293 cells stably expressing hROMK (hKir1.1) were grown at 37° C. in a 10% CO2 humidified incubator in complete growth media: Dulbecco's Modified Eagle Medium supplemented with non-essential amino acids, Penicillin/Streptomycin/Glutamine, G418 and FBS. At >80% confluency, aspirate the media from the flask and rinse with 10 mL Calcium/Magnesium-free PBS. Add 5 mL of 1× trypsin (prepared in Ca/Mg Free PBS) to T-225 flask and return flask to 37° C./CO2 incubator for 2-3 minutes. To dislodge the cell, gently bang the side of the flask with your hand. Triturate the cells completely and then transfer the cells to 25 mL complete media. Centrifuge at 1,500 rpm for 6 min followed by resuspension in complete growth media and determine cell concentration. For typical re-seeding, 4E6 cells/T-225 flask will attain >80% confluency in 4 days. Under ideal growth conditions and appropriate tissue culture practices, this cell line is stable for 40-45 passages. FluxOR Kit Components (Invitrogen F10017) • FluxOR™ Reagent (Component A) • FluxOR™ Assay Buffer (Component B)—10× Concentrate • PowerLoad™ Concentrate (Component C)—100× Concentrate • Probenecid (Component D)—Lyophilized sample is kept at −20° C. Water soluble, 100× after solubilization in 1 mL water. Store at 4° C. • FluxOR™ Chloride-free Buffer (Component E)—5× Concentrate • Potassium sulfate (K2SO4) Concentrate (Component F)—125 mM in water. Store at 4° C. • Thallium sulfate (Tl2SO4) Concentrate (Component G)—50 mM in water. Store at 4° C. • DMSO (dimethyl sulfoxide, Component H)—1 mL (100%) Reagent Preparation: FluxOR Working Solutions • 1000× FluxOR™ Reagent: Reconstitute a vial of component A in 100 μl DMSO; Mix well; Store 10 μl aliquots at −20° C. • 1× FluxOR™ Assay Buffer: Dilute Component B 10-fold with water; Adjust pH to 7.4 with Hepes/NaOH; Filter and store at 4° C. • Probenecid/Assay Buffer: 100 mL of 1× FluxOR™ Assay Buffer; 1 mL of reconstituted component D; Store at 4° C. • Loading Buffer (per microplate): 10 μl 1000× FluxOR™ Reagent; 100 μl component C; 10 mL Probenecid/Assay Buffer • Compound Buffer (per microplate): 20 mL Probenecid/Assay Buffer; 0.3 mM ouabain (10 mM ouabain in water can be stored in amber bottle/aluminum foil at room temperature); Test compound • 1× FluxOR™ Chloride-Free Buffer: Prepare 1× working solution in water. Can be stored at room temperature • Stimulant Buffer (prepared at 5× final concentration in 1× FluxOR™ Chloride-Free Buffer): 7.5 mM Thallium sulfate and 0.75 mM Potassium sulfate (to give a final assay concentration of 3 mM Thallium/0.3 mM Potassium). Store at 4° C. when not in use. If kept sterile, this solution is good for months. Assay Protocol—The ROMK channel functional thallium flux assay is performed in 384 wells, using the FLIPR-Tetra instrument. HEK-hKir1.1 cells are seeded in Poly-D-Lysine microplates and kept in a 37° C.-10% CO2 incubator overnight. On the day of the experiment, the growth media is replaced with the FluxOR™ reagent loading buffer and incubated, protected from light, at ambient temperature (23-25° C.) for 90 min. The loading buffer is replaced with assay buffer±test compound followed by 30 min incubation at ambient temperature, where the Thallium/Potassium stimulant is added to the microplate. Step Protocol • 1. Seed HEK-hKir1.1 cells (50 μl at 20,000 cells/well) in 384-well PDL coated Microplates • 2. Allow cells to adhere overnight in humidified 37° C./10% CO2 incubator • 3. Completely remove cell growth media from microplate and replace with 25 μl loading buffer • 4. Incubate Microplate at room temperature, protected form light, for 90 min • 5. Remove loading buffer and replace with 25 μl 1× Assay Buffer±test compound. • 6. Incubate microplate at room temperature, protected from light, for 30 min • 7. At FLIPR-Tetra 384: Add stimulant (Thallium/Potassium) solution to microplate and monitor fluorescence. […]
Compound `O=C1C=C(N2C(=O)C3(CCN(C[C@H](O)c4ccc(-n5cnnn5)cn4)CC3)CC2C2CC2)CO1` (mixture of isomers) [Example 223, 3-cyclopropyl-8-{(2S)-2-hydroxy-2-[5-(1H-tetrazol-1-yl)pyridin-2-yl]ethyl}-2-(5-oxo-2,5-dihydrofuran-3-yl)-2,8-diazaspiro[4.5]decan-1-one] displayed a half-inhibitory concentration (IC50) of 50 nM.

`CC1=C(N2CC[C@]3(CCN(C[C@H](O)c4cnc(-n5cnnn5)cn4)CC3F)C2=O)COC1=O` (mixture of isomers) [Example 224, 6-fluoro-8-{(2S)-2-hydroxy-2-[5-(1H-tetrazol-1-yl)pyrazin-2-yl]ethyl}-2-(4-methyl-5-oxo-2,5-dihydrofuran-3-yl)-1-oxo-2-aza-8-azoniaspiro[4.5]decane]: the IC50 is 110 nM.

In turn, `CC1=C(N2CC[C@@]3(CCN(C[C@H](O)c4cnc(-n5cnnn5)cn4)CC3F)C2=O)COC1=O` (mixture of isomers) [Example 225, 6-fluoro-8-{(2S)-2-hydroxy-2-[5-(1H-tetrazol-1-yl)pyrazin-2-yl]ethyl}-2-(4-methyl-5-oxo-2,5-dihydrofuran-3-yl)-1-oxo-2-aza-8-azoniaspiro[4.5]decane] registered an IC50 of 150 nM.

In turn, `CC1OC(=O)C=C1N1CCC2(CCN(C[C@H](O)c3ccc(-n4cnnn4)nc3)CC2)C1=O` (mixture of isomers) [Example 226, 8-((R)-2-(6-(1H-tetrazol-1-yl)pyridin-3-yl)-2-hydroxyethyl)-2-(2-methyl-5-oxo-2,5-dihydrofuran-3-yl)-2,8-diazaspiro[4.5]decan-1-one] displayed an IC50 of 330 nM.

For the compound `CC1OC(=O)C=C1N1CCC2(CCN(C[C@H](O)c3ccc(-n4cnnn4)nc3)CC2)C1=O` (mixture of isomers) [Example 227, 8-((R)-2-(6-(1H-tetrazol-1-yl)pyridin-3-yl)-2-hydroxyethyl)-2-(2-methyl-5-oxo-2,5-dihydrofuran-3-yl)-2,8-diazaspiro[4.5]decan-1-one], the 50% inhibitory concentration (IC50) worked out at 180 nM.

Compound `CC1=C(N2C(=O)C3(CCN(CCc4ccc(-n5cnnn5)nn4)CC3)CC2C)COC1=O` (racemic) [Example 240, 3-methyl-2-(4-methyl-5-oxo-2,5-dihydrofuran-3-yl)-1-oxo-8-{2-[6-(1H-tetrazol-1-yl)pyridazin-3-yl]ethyl}-2-aza-8-azoniaspiro[4.5]decane] had an IC50 of 30 nM.

`CC1=C(N2C(=O)C3(CCN(CCc4ccc(-n5cnnn5)nn4)CC3)CC2C)COC1=O` (racemic) [Example 241, 3-methyl-2-(4-methyl-5-oxo-2,5-dihydrofuran-3-yl)-1-oxo-8-{2-[6-(1H-tetrazol-1-yl)pyridazin-3-yl]ethyl}-2-aza-8-azoniaspiro[4.5]decane] yielded an IC50 of 20 nM.

Regarding `O=C1C=C(N2CCC3(CCN(C[C@@H](O)c4ccc(-n5cnnn5)nc4)CC3)C2=O)CO1` (single isomer, unassigned) [Example 2], 50 nM corresponded to half-maximal inhibition (IC50).

The compound `CC1=C(N2C(=O)C3(CCN(C[C@@H](O)c4ccc(-n5cnnn5)nc4)CC3)CC2C)COC1=O` (single isomer, unassigned) [Example 63] returned an IC50 of 40 nM.

With `CC1=C(N2C(=O)C3(CCN(C[C@@H](O)c4ccc(-n5cnnn5)nc4)CC3)CC2C)COC1=O` (single isomer, unassigned) [Example 64], inhibition was half-maximal at 50 nM (IC50).

In the case of `CC1=C(N2C(=O)C3(CCN(C[C@H](O)c4ccc(-n5cnnn5)nc4)CC3)CC2C)COC1=O` (single isomer, unassigned) [Example 65], the IC50 turned out to be 10 nM.

For `CC1=C(N2C(=O)C3(CCN(C[C@H](O)c4ccc(-n5cnnn5)nc4)CC3)CC2C)COC1=O` (single isomer, unassigned) [Example 66], the IC50 was found to be 10 nM.

For the compound `CC1=C(N2C(=O)C3(CCN(C[C@H](O)c4cnc(-n5cnnn5)cn4)CC3)CC2C)COC1=O` (single isomer, unassigned) [Example 67], it took 170 nM to reach half-maximal inhibition (IC50).

Consider `CC1=C(N2C(=O)C3(CCN(C[C@@H](O)c4cnc(-n5cnnn5)cn4)CC3)CC2C)COC1=O` (single isomer, unassigned) [Example 68], for which the IC50 came to 230 nM.

The compound `CC1CC2(CC3CCC(C2)N3C[C@H](O)c2cnc(-n3cnnn3)cn2)C(=O)N1C1=CC(=O)OC1` (single isomer, unassigned) [Example 89] had an IC50 of 30 nM.

As for `CC1CC2(CC3CCC(C2)N3C[C@@H](O)c2cnc(-n3cnnn3)cn2)C(=O)N1C1=CC(=O)OC1` (single isomer, unassigned) [Example 90], the half-inhibitory concentration (IC50) was 40 nM.

In the case of `CC1CC2(CC3CCC(C2)N3C[C@H](O)c2cnc(-n3cnnn3)cn2)C(=O)N1C1=CC(=O)OC1` (single isomer, unassigned) [Example 91], the IC50 turned out to be 30 nM.

In the case of `CC1CC2(CC3CCC(C2)N3C[C@@H](O)c2cnc(-n3cnnn3)cn2)C(=O)N1C1=CC(=O)OC1` (single isomer, unassigned) [Example 92], the half-inhibitory concentration (IC50) was determined as 20 nM.

Consider `CC1CC2(CC3CCC(C2)N3C[C@H](O)c2ccc(-n3cnnn3)nc2)C(=O)N1C1=CC(=O)OC1` (single isomer, unassigned) [Example 100], for which the midpoint of inhibition, the IC50, lay at 10 nM.

`CC1CC2(CC3CCC(C2)N3C[C@@H](O)c2ccc(-n3cnnn3)nc2)C(=O)N1C1=CC(=O)OC1` (single isomer, unassigned) [Example 101] returned a 50% inhibitory concentration (IC50) of 6 nM.

On to `CC1CC2(CC3CCC(C2)N3C[C@H](O)c2ccc(-n3cnnn3)nc2)C(=O)N1C1=CC(=O)OC1` (single isomer, unassigned) [Example 102], for which it took 10 nM to reach half-maximal inhibition (IC50).

The compound `CC1CC2(CC3CCC(C2)N3C[C@@H](O)c2ccc(-n3cnnn3)nc2)C(=O)N1C1=CC(=O)OC1` (single isomer, unassigned) [Example 103] came in with an IC50 of 10 nM.

Compound `CC1=C(N2CC(O)C3(CC4CCC(C3)N4C[C@H](O)c3ccc(-n4cnnn4)nc3)C2=O)COC1=O` (single isomer, unassigned) [Example 104] registered a 50% inhibitory concentration (IC50) of 120 nM.

`CC1=C(N2CC(O)C3(CC4CCC(C3)N4C[C@@H](O)c3ccc(-n4cnnn4)nc3)C2=O)COC1=O` (single isomer, unassigned) [Example 105]: the IC50 stood at 130 nM.

`CC1=C(N2CC(O)C3(CC4CCC(C3)N4C[C@H](O)c3ccc(-n4cnnn4)nc3)C2=O)COC1=O` (single isomer, unassigned) [Example 106] registered an IC50 of 60 nM.

For `CC1=C(N2CC(O)C3(CC4CCC(C3)N4C[C@@H](O)c3ccc(-n4cnnn4)nc3)C2=O)COC1=O` (single isomer, unassigned) [Example 107], the IC50 was 110 nM.

The compound `COC1CN(C2=C(C)C(=O)OC2)C(=O)C12CC1CCC(C2)N1C[C@H](O)c1ccc(-n2cnnn2)nc1` (single isomer, unassigned) [Example 108] registered a concentration for half-maximal inhibition (IC50) of 40 nM.
